Like-named read-outs stand apart in the source and are kept apart here.
Columns and labels:
K562 cells = test: Cell Titer Glo 2.0 cell viability (toxicity) assay, K562; conditions: 500 cells/well, 72 hours
SMN2 mRNA = test: RT-qPCR splicing assay, SMN2 mRNA; type: cell-based, human; conditions: Homo sapiens, canonical junction qPCR panel, Table 4; read-out: SMN2 IC50 (decrease in CJ mRNA levels)
Outline: (§1)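 A673 or K562 cells treated 24 h at 37 °C with 11-point 3-fold dilutions (top final 10 uM, DMSO ≤0.25%). Lysates analysed by one-step RT-qPCR for canonical (CJ) and alternative-exon (AJ) junctions, normalized to GAPDH, GUSB or PPIA. ΔΔCt vs DMSO, RQ = 2^(−ΔΔCt), expressed as percentage response.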

HTT mRNA = test: RT-qPCR splicing assay, HTT mRNA canonical (CJ) and alternative (AJ) junction; type: cell-based, human; conditions: Homo sapiens; for AC50: HTT alternative junction mRNA increase, read-out: HTT AJ (increase in alternative junction mRNA, AC50)
Outline: as §1

Target C = test: RT-qPCR canonical junction panel assay, Target C mRNA; type: cell-based; conditions: Table 4, read-out: Target C IC50 (decrease in CJ mRNA levels)
Procedure: Compounds described herein were used to modulate RNA transcript abundance in cells. The expression of a target mRNA was measured by detecting the formation of an exon-exon junction in the canonical transcript (CJ). A compound mediated exon-inclusion event was detected by observing an increase in formation of a new junction with an alternative exon (AJ). Real-time qPCR assays were used to detect these splicing switches and interrogate the potency of various compounds towards different target genes. A high-throughput real time quantitative PCR (RT-qPCR) assay was developed to measure these two isoforms of the mRNA (CJ and AJ) for exemplary genes, such as HTT, SMN2, and MYB, together with a control housekeeping gene, GAPDH or GUSB or PPIA, used for normalization. Briefly, the A673 or K562 cell line was treated with various compounds described herein (e.g., compounds of Formula (I)). After treatment, the levels of the HTT, MYB, or SMN2 mRNA targets were determined from each sample of cell lysate by cDNA synthesis followed by qPCR.
The data analysis was performed by first determining the ΔCt vs the housekeeper gene. This ΔCt was then normalized against the DMSO control (ΔΔCt) and converted to RQ (relative quantification) using the 2^(−ΔΔCt) equation. The RQ were then converted to a percentage response by arbitrarily setting an assay window of 3.5 and 4.0 ΔCt for HTT-CJ and MYB-CJ respectively and an assay window of 9 and 3 ΔCt for HTT-AJ and MYB-AJ in 96 well format (50,000 K562 cells/well and 15,000 A673 cells per well) and an assay window of 3 and 4 ΔCt for HTT-CJ and MYB-CJ respectively and an assay window of 5 and 3 ΔCt for HTT-AJ and MYB-AJ respectively in 384 well format (8,000 K562 cells/well example). […] The percentage response was then fitted to the 4 parametric logistic equation to evaluate the concentration dependence of compound treatment. The increase in AJ mRNA is reported as AC50 (compound concentration having 50% response in AJ increase) while the decrease in CJ mRNA levels is reported as IC50 (compound concentration having […] in CJ decrease).
Additional studies were carried out for a larger panel of genes using the protocol provided above. The junction between flanking upstream and downstream exons was used to design canonical junction Qpcr assays. At least one of the forward primer, reverse primer or the CY5-labeled 5′ nuclease probe (with 3′ quencher such as ZEN/Iowa Black FQ) was designed to overlap with the exon junction to capture the CJ Mrna transcript. BLAST was used to confirm the specificity of the probeset and parameters suCH As melting temperature, GC content, amplicon size, and primer dimer formation are considered during their design. Data for the decrease in CJ Mrna levels for four exemplary genes (HTT, SMN2, MYB, and Target C) analyzed in this panel are reported as IC50 (compound concentration having […] in CJ decrease).

MYB mRNA = test: RT-qPCR splicing assay, MYB mRNA canonical (CJ) and alternative (AJ) junction; type: cell-based, human; conditions: Homo sapiens; for AC50: MYB alternative junction mRNA increase, read-out: MYB AJ (increase in alternative junction mRNA, AC50)
Outline: as §1

[1] = RT-qPCR, HTT canonical junction mRNA decrease, read-out: HTT CJ (decrease in canonical junction mRNA, IC50)
[2] = canonical junction qPCR panel, Table 4, read-out: HTT IC50 (decrease in CJ mRNA levels)
[3] = RT-qPCR, MYB canonical junction mRNA decrease, read-out: MYB CJ (decrease in canonical junction mRNA, IC50)
[4] = canonical junction qPCR panel, Table 4, read-out: MYB IC50 (decrease in CJ mRNA levels)

IC50 (SMN2 mRNA) [nM]	IC50 (HTT mRNA; [1]) [nM]	IC50 (HTT mRNA; [2]) [nM]	IC50 (Target C) [nM]	IC50 (MYB mRNA; [3]) [nM]	IC50 (MYB mRNA; [4]) [nM]	Compound	Effect of Exemplary Compounds on Cell Viability, K562 (K562 cells)	AC50 (HTT mRNA; RT-qPCR) [nM]	AC50 (MYB mRNA; RT-qPCR) [nM]
100 to 1000	> 10000	> 10000	> 10000	1000 to 10000	1000 to 10000	Cc1nc(-c2cc(F)c3nn(C)cc3c2)nc2ccc(N3C[C@@H](C)N[C@@H](C)C3)cc12 [Compound 781, 6-[(3R,5S)-3,5-dimethylpiperazin-1-yl]-2-(7-fluoro-2-methylindazol-5-yl)-4-methylquinazoline]	C (C represents 1000-9999 nM)	> 10000	1000 to 10000
< 100	1000 to 10000	1000 to 10000	> 10000	100 to 1000	100 to 1000	Cc1nc(-c2cc3cn(C)nc3cc2O)nc2ccc(N3C[C@@H](C)N[C@@H](C)C3)cc12 [Compound 782, 5-(6-((3S,5R)-3,5-dimethylpiperazin-1-yl)-4-methylquinazolin-2-yl)-2-methyl-2H-indazol-6-ol 2,2,2-trifluoroacetate]	B (B represents 100-1000 nM)	> 10000	100 to 1000
< 100	> 10000	> 10000	> 10000	100 to 1000	100 to 1000	Cc1nc(-c2cc3cn(C)nc3c(C)c2O)nc2ccc(N3C[C@@H](C)N[C@@H](C)C3)cc12 [Compound 783, 5-{6-[(3R,5S)-3,5-dimethylpiperazin-1-yl]-4-methylquinazolin-2-yl}-2,7-dimethylindazol-6-ol]	B (B represents 100-1000 nM)	> 10000	100 to 1000
< 100	1000 to 10000	1000 to 10000	> 10000	< 100	< 100	Cc1c(O)c(-c2nc(C(N)=O)c3cc(N4C[C@@H](C)N[C@@H](C)C4)ccc3n2)cc2cn(C)nc12 [Compound 784, 6-[(3R,5S)-3,5-dimethylpiperazin-1-yl]-2-(6-hydroxy-2,7-dimethylindazol-5-yl)quinazoline-4-carboxamide]	A (A represents <100 nM)	> 10000	< 100
< 100	1000 to 10000	1000 to 10000	1000 to 10000	< 100	< 100	C[C@@H]1CN(c2ccc3nc(-c4cc5cn(C)nc5cc4O)nc(C(N)=O)c3c2)C[C@H](C)N1 [Compound 785, 6-((3R,5S)-3,5-dimethylpiperazin-1-yl)-2-(6-hydroxy-2-methyl-2H-indazol-5-yl)quinazoline-4-carboxamide 2,2,2-trifluoroacetate]	A (A represents <100 nM)	> 10000	100 to 1000
< 100	100 to 1000	100 to 1000	100 to 1000	100 to 1000	100 to 1000	Cc1c(O)c(-c2ncc3cc(N4CCC(N5CCC5)CC4)ccc3n2)cc2cn(C)nc12 [Compound 786, 5-{6-[4-(azetidin-1-yl)piperidin-1-yl]quinazolin-2-yl}-2,7-dimethylindazol-6-ol]	B (B represents 100-1000 nM)	100 to 1000	100 to 1000
< 100	1000 to 10000	1000 to 10000	1000 to 10000	100 to 1000	100 to 1000	Cn1cc2cc(-c3ncc4cc(N5CCC(N6CCC6)CC5)ccc4n3)cc(F)c2n1 [Compound 787, 6-[4-(azetidin-1-yl)piperidin-1-yl]-2-(7-fluoro-2-methylindazol-5-yl)quinazoline]	B (B represents 100-1000 nM)	1000 to 10000	100 to 1000

From patent publication US20250092065A1, “2-(INDAZOL-5-YL)-6-(PIPERIDIN-4-YL)-1,7-NAPHTHYRIDINE DERIVATIVES AND RELATED COMPOUNDS AS MODULATORS FOR SPLICING NUCLEIC ACIDS AND FOR THE TREATMENT OF PROLIFERATIVE DISEASES” (REMIX THERAPEUTICS INC., priority 2022, published 2025)
